Converted amounts (≈) assume the structure as drawn. “And” between values parts separate entries of the source, which are not always exact repeats. Equal entries are not always repeated. Where two headings read alike, the source gives them in different places.
Columns and labels:
[1] = target: T1, human erythrocyte plasma membrane Ca^2+ -ATPase (Homo sapiens, UniProt P23634); assay: Ca^2+ -ATPase assay (erythrocyte membranes; Table 1); assay type: biochemical; settings: for inhibition at 100 µM / inhibition at 25 µM: read-out: INHIBITION OF Ca^2+ -ATPase PERCENT (%); for Ca^2+ -ATPase inhibitory activity relative to striatol: compared with natural product striatol
T1 construct: Calmodulin-depleted erythrocyte membranes were prepared by continuous filtration through a hollow fibre; tissue New South Wales Red Cross Transfusion Service, Sydney; host or cells: human packed red blood cells (calmodulin-depleted erythrocyte membranes)
Description: Natural and synthetic compounds of formula (I) were tested for their ability to influence human erythrocyte plasma membrane Ca^2+ -ATPase.
(§1) Packed cells were obtained from the New South Wales Red Cross Transfusion Service, Sydney. The whole preparation was carried out at 4° C. 1 unit of packed red cells was washed 3 times with isotonic buffer, containing 130 mM KCl, 20 mM Tris-HCl (pH 7.4), and the cells were collected by centrifugation at 4,000 RPM. The cells were haemolysed by the buffer containing 1 mM EDTA, 10 mM Tris-Hcl (pH 7.4), 0.5 mM PMSF (phenylmethyl sulfonyl fluoride). The haemolyzate mixture was passed through the hollow fibre system until the membrane appeared white, and then washed with 10 mM potassium Hepes (pH 7.4). The membranes were collected by centrifugation at 10,000 RPM for 20 min, the membranes were resuspended in storage buffer containing 130 mM KCl, 2 mM dithiothreitol, 0.5 mM MgCl2, 20 mM potassium-Hepes (pH 7.5). The membranes with protein concentration of 1.5-5.4 mg/ml were stored at -80° C. until required.
Erythrocyte membranes (0.071-0.098 mg/ml) were incubated at 37° C. for one hour in a total volume of 0.4 ml of 65 mM KCl, 20 mM potassium-Hepes, 5 mM MgCl2, 50 μM CaCl2, 0.1 μm calmodulin, 0.1 mM EGTA. The reaction was started by adding 2 mM ATP(pH 7.4). […] The activity of the Mg^2+ -ATPase (assayed in the absence of added CaCl2) was subtracted from the total activity assayed in the presence of Ca^2+. […] A concentrated solution of the test substances was added to the reaction medium before adding ATP.

[2] = system: purified erythrocyte Ca^2+ -ATPase; assay: Inhibition of purified erythrocyte Ca^2+ -ATPase; assay type: biochemical; settings: purified enzyme
[3] = system: brine shrimp (Artemia salina Leach); assay: Brine shrimp toxicity bioassay; assay type: in vivo; settings: for LC50: Artemia salina, read-out: LC50 brine shrimp
Description: There are many applications of the assay including analysis of toxic substances, anaesthetics, morphine-like substances and cocarcinogenicity of phorbol esters.
6 (K Hostettman, ed.), Academ Press, London, 1-32. DMSO solutions of the substances to be tested were added directly to the vials containing the brine shrimp. As the concentration of DMSO that we wished to use was higher than the recommended 1% v/v testing of the toxicity of the DMSO was therefore necessary.
Brine shrimp toxicity was assayed, except for some minor modifications, according to the method of McLaughlin et al as reported in Brine Shrimp: A convenient general bioassay for active plant constituents, B N Meyer, N R Ferrigni, J E Putman, L B Jacobsen, D E Nhols and J L McLaughlin. […] J L McLaughlin. […] 6 (K Hostettman, ed.), Academ Press, London, 1-32. Ten shrimp were added transferred to each of the vials and the volume adjusted to 4.9 mL. Each dose was performed in triplicate, including the control. In quick succession, the appropriate volume of additional DMSO for each dose, required to achieve a final concentration of 2%, was added before the appropriate volume of test solution. The vials were gently mixed and the time noted. After 24 hours, the number of survivors were counted and % mortality was determined.
The LC50 values were expressed in both μM and μg/mL.

[4] = system: ^45 Ca^2+ efflux from rat thoracic aorta smooth muscle cells; assay: ^45 Ca^2+ efflux from cultured vascular smooth muscle cells; assay type: cell-based
Source text: ^45 Ca efflux from cultured vascular smooth muscle cells consists of two major mechanisms; one is dependent on extracellular sodium, mediated by the Na^+ -Ca^2+ exchanger (Na^+ - dependent Ca^2+ efflux), and the other is independent of extracellular sodium but is mediated by the Ca^2+ pump (Na^+ - independent Ca^2+ efflux). The effect of striatol on the efflux of calcium (^45 Ca^2+) from rat thoracic aorta smooth muscle cells in culture was studied. ^45 Ca^2+ efflux is a measure of plasma membrane Ca^2+ -ATPase (plus Na^+ : Ca^2+ exchange) in intact (whole) cells.

[5] = target: T1, human erythrocyte plasma membrane Ca^2+ -ATPase; assay: Ca^2+ -ATPase assay (microplate method), absence (-CaM) and presence (+CaM) of calmodulin (Table 1A); assay type: biochemical
Description: Natural and synthetic compounds of formula (I) were tested for their ability to influence human erythrocyte plasma membrane Ca^2+ -ATPase. The enzyme Ca^2+ -ATPase in the human red blood cell plasma membrane has previously been studied and its stimulation by calmodulin and activation by lipids and proteolysis and its primary structure have been published (see Carafoli E (1991) Calcium pump of the plasma membrane, Physiological Reviews 71, 129-153.
as §1, with “Calmodulin-depleted erythrocyte membranes were prepared by continuous filtration through a hollow fibre, Ashahi plasma separator as described by W S Price, B D Roufogalis, P W Kuchel (1989), A simple and inexpensive method for preparing erythrocyte membranes by filtration through a hollow-filter system, Anal. Biochem., 179, 190-193. Packed” for “Packed”
Erythrocyte membranes were incubated at 37° C. for one hour in a total volume of 60 μl of 65 mM KCl, 50 mM HEPES (pH=7.4), 5 mM MgCl2, 50 μM CaCl2, 0.1 mM EGTA and in absence and presence of calmodulin (0.3 μM). Test compounds were dissolved in dimethyl sulfoxide DMSO and 2 μl was added to the assay mixture prior the addition of ATP. The final concentration of DMSO in the assay mixture was 3%. The reaction was started by adding 2 mM ATP (pH=7.4). After 1 hour of incubation, colouring agent (180 μl) was added and incubated at 37° C. for 1/2 hrs. The phosphate liberated to the assay medium was determined spectrometrically using a microplate reader at 750 nm. The activity of the Mg^2+ -ATPase (assayed in the absence of added CaCl2) was subtracted from the total activity assayed in the presence of Ca^2+.

[6] = system: brine shrimp (Artemia salina Leach); settings: determined by Meyer et al.; cited from earlier work
[7] = read-out: INHIBITION OF Ca^2+ -ATPase IC50
[8] = absence of calmodulin, read-out: IC50 (-CaM)
[9] = presence of calmodulin (0.3 μM), read-out: IC50 (+CaM)

T1 sequence (P23634 1-1205 isoform P23634-6): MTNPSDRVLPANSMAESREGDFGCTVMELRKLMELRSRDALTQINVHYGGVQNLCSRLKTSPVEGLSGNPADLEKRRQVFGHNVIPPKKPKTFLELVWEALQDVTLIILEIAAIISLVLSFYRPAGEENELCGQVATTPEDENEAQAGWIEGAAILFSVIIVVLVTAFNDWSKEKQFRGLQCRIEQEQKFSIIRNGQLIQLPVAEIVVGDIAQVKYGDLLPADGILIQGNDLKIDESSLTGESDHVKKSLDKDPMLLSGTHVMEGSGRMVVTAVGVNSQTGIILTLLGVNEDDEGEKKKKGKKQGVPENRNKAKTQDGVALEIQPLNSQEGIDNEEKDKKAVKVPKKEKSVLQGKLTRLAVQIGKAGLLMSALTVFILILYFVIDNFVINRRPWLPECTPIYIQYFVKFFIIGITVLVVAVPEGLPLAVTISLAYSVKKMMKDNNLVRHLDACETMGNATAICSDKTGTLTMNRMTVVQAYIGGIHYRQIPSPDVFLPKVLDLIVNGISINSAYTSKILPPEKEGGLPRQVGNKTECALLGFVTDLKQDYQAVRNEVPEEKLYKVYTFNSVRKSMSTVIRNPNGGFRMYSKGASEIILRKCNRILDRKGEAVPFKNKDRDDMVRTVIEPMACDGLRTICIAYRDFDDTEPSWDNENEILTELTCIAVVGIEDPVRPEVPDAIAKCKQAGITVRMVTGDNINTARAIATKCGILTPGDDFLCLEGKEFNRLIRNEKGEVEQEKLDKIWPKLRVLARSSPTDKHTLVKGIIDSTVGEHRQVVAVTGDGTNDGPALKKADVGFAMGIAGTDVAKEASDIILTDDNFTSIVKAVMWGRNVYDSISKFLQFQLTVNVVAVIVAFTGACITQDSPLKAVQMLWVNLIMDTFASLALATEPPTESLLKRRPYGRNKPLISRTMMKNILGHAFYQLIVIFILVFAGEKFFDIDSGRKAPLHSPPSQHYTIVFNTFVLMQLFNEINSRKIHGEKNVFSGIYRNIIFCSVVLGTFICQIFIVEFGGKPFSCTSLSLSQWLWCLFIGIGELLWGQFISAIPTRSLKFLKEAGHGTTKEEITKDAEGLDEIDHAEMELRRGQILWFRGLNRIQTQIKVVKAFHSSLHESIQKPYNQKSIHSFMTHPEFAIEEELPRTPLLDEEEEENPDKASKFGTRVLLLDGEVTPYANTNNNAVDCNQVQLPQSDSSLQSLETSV
T1 sequence (P35613 140-385 partner limits assumed): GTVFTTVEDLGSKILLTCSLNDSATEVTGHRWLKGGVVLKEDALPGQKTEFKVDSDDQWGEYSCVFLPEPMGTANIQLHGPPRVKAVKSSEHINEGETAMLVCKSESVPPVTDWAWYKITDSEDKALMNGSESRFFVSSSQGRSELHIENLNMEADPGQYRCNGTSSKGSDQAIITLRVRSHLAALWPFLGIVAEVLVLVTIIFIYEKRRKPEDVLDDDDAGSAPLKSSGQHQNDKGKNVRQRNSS

In the case of `Cc1c(O)cc(CCCCCCCCCCCCCCc2cc(O)c(C)c(O)c2)cc1O` [striatol, 1,14-bis(3,5-dihydroxy-4-methylphenyl)tetradecane], the inhibition at 100 µM ([1]; at 100 μM) is reported as 98%, the IC50 [1, 7] is reported as 16 µM and the “inhibitory activity with purified erythrocyte Ca^2+ -ATPase” value [2] is reported as “confirmed”. The “toxicity to brine shrimp (in words)” value ([3]; 24 hours) was “relatively low toxicity”, the LC50 ([3]; 24 hours) was 11 µM and 4.9 µg/mL and the “inhibition of ^45 Ca^2+ efflux” value ([4]; 20 μM, 5 min) was “partial inhibition”. The “inhibition of ^45 Ca^2+ efflux” value ([4]; 20 μM, 10 min) was “partial inhibition” and the “inhibition of ^45 Ca^2+ efflux” value ([4]; 50 μM, 30 min) was “complete inhibition”.

With `CCCCCCCCCCCCc1ccc(O)cc1O` [4-dodecylresorcinol, reference compound] the “Ca^2+ -ATPase inhibitory activity (in words)” value [1] was “most potent among the alkylresorcinols tested”, the inhibition at 100 µM ([1]; at 100 μM) was 68% and the IC50 [1, 7] was 69 µM. For the same molecule, the IC50 [5, 8] was 80 µM, the IC50 [5, 9] was 100 µM and the LC50 ([3]; 24 hours) was 8.8 µM and 2.4 µg/mL.

With `CCCCCCCCCc1ccccc1O` [2-nonylphenol] the IC50 [1] was 30 µM, the inhibition at 100 µM [1] was 95% and the IC50 ([5]; IC50 (+CaM), presence of calmodulin (0.3 μM)) was 40 µM. The IC50 ([5]; IC50 (-CaM), absence of calmodulin) was 36 µM and the LC50 ([3]; 24 h) was 480 nM and 0.11 µg/mL.

In the case of `Oc1ccccc1CCCCCCCCCCc1ccccc1O` [1,10-bis(2-hydroxyphenyl)decane], the “Ca^2+ -ATPase inhibitory activity (in words)” value [1] is reported as “strongest Ca^2+ -ATPase inhibition among the synthesised phenolic compounds”, the inhibition at 25 µM [1] is reported as 100% and the “Ca^2+ -ATPase inhibitory activity relative to striatol” value [1] is reported as “two-fold higher”. The IC50 [1, 7] was 7.6 µM, the “Ca^2+ -ATPase inhibitory activity (in words)” value [5] was “most potent inhibitors of plasma Ca^2+ -ATPase among the synthesised substances” and the IC50 [5, 8] was 8.4 µM. For the same molecule, the IC50 [5, 9] was 9 µM, the “toxicity to brine shrimp (in words)” value ([3]; 24 hours) was “moderately toxic” and the LC50 ([3]; 24 hours) was 1.9 µM and 0.62 µg/mL.

For `Oc1ccccc1CCCCCCCCCCCCc1ccccc1O` [1,12-bis(2-hydroxyphenyl)dodecane], the “Ca^2+ -ATPase inhibitory activity (in words)” value [1] was “strongest Ca^2+ -ATPase inhibition among the synthesised phenolic compounds”, the inhibition at 25 µM [1] was 100% and the “Ca^2+ -ATPase inhibitory activity relative to striatol” value [1] was “two-fold higher”. The IC50 [1, 7] was 8.3 µM, the IC50 [5, 8] was 12.5 µM and the IC50 [5, 9] was 13 µM. For the same molecule, the LC50 ([3]; 24 hours) was 2.6 µM and 0.94 µg/mL.

With `Cc1cc(CCCCCCCCCCc2ccc(O)c(C)c2)ccc1O` [1,10-bis(4-hydroxy-3-methylphenyl)decane] the IC50 [5, 8] was 100 µM, the IC50 [5, 9] was 94 µM and the LC50 ([3]; 24 hours) was 4.2 µM and 1.5 µg/mL.

For `COc1cc([C@@H]2c3cc4c(cc3[C@H](O)[C@H]3COC(=O)[C@H]23)OCO4)cc(OC)c1OC` [podophyllotoxin, reference compound], the LC50 [6] is listed as 5.8 µM, the “LC50 brine shrimp (Meyer et al.)” value [6] is listed as 2.4 µg/mL (≈ 5.79 µM) and the LC50 ([3]; 24 h) is listed as 3.8 µM and 1.6 µg/mL.
